Holding throughout (assay type): cell-based
A short description of series [1]: Cytotoxicity in HCV replicon cells (Cell Titer-fluor). As for the experimental part:
(§1) The EC50 and CC50 values of anti-HCV compounds were determined by HCV genotype 1a (HCV-1a) and 1b (HCV-1b) stable transfected replication (replicon) cells. The source of genotype 1a replicon is H77 clones containing K1691R, K2040R and S2204I adaptive mutations. The source of genotype 1b replicon is Con1 clones containing E1202G, T1280I and K1846T adaptive mutations.
(§2) The compound powder was dissolved in 100% DMSO. Then the compound was diluted 5 times with 6 points, and added into the cell plate with Echo liquid handler. Ensure the final concentration of DMSO was 0.5%. Each compound was tested in duplicate.
(§3) 4) Diluting cells to 8×10^4 cells/mL with the culture medium, adding the diluted cells into the compound-containing 96-well plate (Greiner, Cat. #655090) (100 μL/well, 8000 cells/well) with automatic liquid separator (Thermo Scientific). Then place into a 37° C., 5% CO2 incubator for 3 days. Cell control well: no compound, only containing 0.5% DMSO.
5) Adding fluorescence substrate Cell Titer-fluor to the cell well, after incubation for 30 minutes, detecting the signal by microplate reader Envison (Ex at 405 nm and read at 515 nm). The effect of the compounds on the cytotoxicity of HCV replicon cells was analyzed according to the fluorescence data, which was used to calculate the CC50 values.
(§4) The EC50 or CC50 values were obtained by nonlinear fitting regression on inhibition percentage (inh %) data with GraphPad Prism software.

In series [2] the test system is HCV genotype 1b (HCV-1b) replicon cells. Put plainly: HCV genotype 1b replicon cell assay (luciferase, Bright-Glo). Conditions: Hepatitis C virus, 72 h, HCV-1b (Con1) replicon cells, 3 days. As for the experimental part: as §1
(§5) HCV 1a (HCV-1a) and 1b (HCV-1b) gene subtype replicon system contains the related HCV gene subtype non-structural protein gene, G418 resistance gene NEO and luciferase gene, which results in that HCV related protein and luciferase can be stably expressed in cells. By detecting the level of expression of luciferase gene, the level of HCV replication can be determined. Therefore, the system is used as a model for screening the activity of anti-HCV compound in vitro.
as §2, §3
(§6) 6) Then adding luciferase substrate Bright-Glo, after incubation for 5 minutes, detecting the luciferase activity by microplate reader Envison (wavelength>700 nm); analyzing the anti-HCV inhibitory activity of the compounds according to luminescence data, which was used to calculate EC50 values.
as §4
On the technique in general: A replicon is a self-replicating genome or part of one, used to study replication in cells.

In series [3] the test system is HCV genotype 1a (HCV-1a) replicon cells. Put plainly: HCV genotype 1a replicon cell assay (luciferase, Bright-Glo). Conditions: Hepatitis C virus, 72 h, HCV-1a (H77) replicon cells, 3 days. As for the experimental part:
as §1, §5, §2, §3, §6, §4

On to `O=C(c1nc2c(C(F)(F)F)cc(C3CC3)cn2c1Cl)N1CCN(C2CCC(F)(F)CC2)C(=O)N1` [YA_0366], for which the CC50 at 3 days in series [1] was greater than 3000 nM. Further, the EC50 in series [2] and in series [3] was 0.1 to 100 nM each time.

The compound `CCCc1cc(C(F)(F)F)c2oc(C(=O)N3CCN(N4CCOC4=O)CC3)c(Cl)c2c1` [YD_0216] yielded a CC50 at 3 days in series [1] greater than 3000 nM. The EC50 in series [2] and in series [3] was 0.1 to 100 nM in each case.

`O=C(c1oc2c(C(F)(F)F)cc(C3CC3)cc2c1Cl)N1CCC(C(=O)N2CC(F)(F)C2)CC1` [YD_0349]: the CC50 at 3 days in series [1] is greater than 3000 nM. Moreover, the EC50 in series [2] and in series [3] was 100 to 1000 nM in each case.

The compound `CC1CN(C(=O)C2CCN(C(=O)c3oc4c(C(F)(F)F)cc(C5CC5)cc4c3Cl)CC2)CCN1` (stereo not drawn) [YD_0326] returned a CC50 at 3 days in series [1] greater than 3000 nM. The figures for the EC50 in series [2] and in series [3] were 1000 to 5000 nM and 100 to 1000 nM, respectively.

`O=C(c1oc2c(C(F)(F)F)cc(C3CC3)cc2c1Cl)N1CCN(C2CCCC2)C(=O)N1` [YD_0357] yielded a CC50 at 3 days in series [1] greater than 3000 nM. Besides, the EC50 in series [2] and in series [3] was 0.1 to 100 nM in each case.

`C[C@H]1COCCN1C(=O)C1CCN(C(=O)c2oc3c(C(F)(F)F)cc(C4CC4)cc3c2Cl)CC1` [YD_0311] had a CC50 at 3 days in series [1] greater than 3000 nM. Also, the EC50 in series [2] and in series [3] was 100 to 1000 nM each time.

Turning to `CCOC(=O)NN1CCN(C(=O)c2oc3c(C(F)(F)F)cc(C4CC4)cc3c2Cl)CC1` [YD_0312], the CC50 at 3 days in series [1] was greater than 3000 nM. Also, the EC50 in series [2] and in series [3] was 100 to 1000 nM each time.

In series [1], `CC(C)N1CCN(C(=O)c2nn3c(C(F)(F)F)cc(C4CC4)cc3c2Cl)NC1=O` [YH_0373] returned a CC50 at 3 days greater than 3000 nM. The EC50 in series [2] and in series [3] was 0.1 to 100 nM in each case.

`CN(C)C(=O)C1CCN(C(=O)c2oc3c(C(F)(F)F)cc(C4CC4)cc3c2Cl)CC1` [YD_0273] yielded a CC50 at 3 days in series [1] greater than 3000 nM. Moreover, the EC50 in series [2] and in series [3] was 0.1 to 100 nM in each case.

On to `O=C(c1nc2c(C(F)(F)F)cc(C3CC3)cn2c1Cl)N1CCN([C@H]2CC[C@H](O)CC2)C(=O)N1` [YA_0363], for which the half-maximal cytotoxic concentration (CC50) at 3 days in series [1] is greater than 3000 nM. Moreover, the EC50 in series [2] and in series [3] was 0.1 to 100 nM throughout.

Consider `O=C1NN(C(=O)c2nc3c(C(F)(F)F)cc(C4CC4)cn3c2Cl)CCN1CC(F)F` [YA_0358], for which the CC50 at 3 days in series [1] was greater than 3000 nM. Moreover, the EC50 in series [2] and in series [3] was 100 to 1000 nM throughout.

`CC(C)N1CCN(C(=O)c2oc3c(C(F)(F)F)cc(C4CC4)cc3c2Cl)NC1=O` [YD_0374] displayed a CC50 at 3 days in series [1] greater than 3000 nM. The EC50 in series [2] and in series [3] was 0.1 to 100 nM in each case.

Regarding `CC1(O)CN(C(=O)C2CCN(C(=O)c3oc4c(C(F)(F)F)cc(C5CC5)cc4c3Cl)CC2)C1` [YD_0345], the CC50 at 3 days in series [1] is greater than 3000 nM. For the same compound, the EC50 in series [2] fell in the range of 1000 to 5000 nM; in series [3] it was 100 to 1000 nM.

Regarding `Cc1cc(C(F)(F)F)c2nc(C(=O)N3CCN(C(C)(C)C)C(=O)N3)c(Cl)n2c1` [YA_0368], the CC50 at 3 days in series [1] is greater than 3000 nM. Moreover, the EC50 lay within 100 to 1000 nM in series [2] and 0.1 to 100 nM in series [3].

For the compound `O=C1CN(N2CCN(C(=O)c3oc4c(C(F)(F)F)cc(C5CC5)cc4c3Cl)CC2=O)C(=O)N1` [YD_0272], in series [1], the CC50 at 3 days is greater than 3000 nM. The EC50 in series [2] and in series [3] was 100 to 1000 nM each time.

As to `O=C(c1oc2c(C(F)(F)F)cc(C3CC3)cc2c1Cl)N1CCC(C(=O)N2CC(F)C2)CC1` [YD_0342], in series [1], the CC50 at 3 days was greater than 3000 nM. Also, the EC50 in series [2] and in series [3] was 0.1 to 100 nM in each case.

In turn, `N#CC1CN(C(=O)C2CCN(C(=O)c3oc4c(C(F)(F)F)cc(C5CC5)cc4c3Cl)CC2)C1` [YD_0352] had a CC50 at 3 days in series [1] greater than 3000 nM. For the same compound, the figures for the EC50 in series [2] and in series [3] were 1000 to 5000 nM and 100 to 1000 nM, respectively.

Compound `CC(C)c1cc(C(F)(F)F)c2oc(C(=O)N3CCN(N4CCOC4=O)CC3)c(Cl)c2c1` [YD_0215] had a CC50 at 3 days in series [1] greater than 3000 nM. The EC50 in series [2] and in series [3] was 0.1 to 100 nM throughout.

In turn, `Cc1nnc(C23CCC(NC(=O)c4oc5c(C(F)(F)F)cc(C(C)C)cc5c4Cl)(CC2)CC3)o1` [YD_0059] showed a CC50 at 3 days in series [1] greater than 3000 nM. The EC50 is 100 to 1000 nM in series [2] and 0.1 to 100 nM in series [3].

`O=C(c1nc2c(C(F)(F)F)cc(C3CC3)cn2c1Cl)N1CCN(C2CCCC2)C(=O)N1` [YA_0338] had a CC50 at 3 days in series [1] greater than 3000 nM. The EC50 in series [2] and in series [3] was 0.1 to 100 nM each time.

Consider `CN(C)C(=O)C1(C)CCN(C(=O)c2oc3c(C(F)(F)F)cc(C4CC4)cc3c2Cl)CC1` [YD_0317], for which the CC50 at 3 days in series [1] is greater than 3000 nM. Also, the values for the EC50 in series [2] and in series [3] were 1000 to 5000 nM and 100 to 1000 nM, respectively.

In series [1], `CC1CN(C(=O)C2CCN(C(=O)c3oc4c(C(F)(F)F)cc(C5CC5)cc4c3Cl)CC2)CCN1C` (stereo not drawn) [YD_0325] showed a CC50 at 3 days greater than 3000 nM. Besides, the EC50 in series [2] fell in the range of 1000 to 5000 nM; in series [3], 100 to 1000 nM.

In turn, `COC1CN(C(=O)C2CCN(C(=O)c3oc4c(C(F)(F)F)cc(C5CC5)cc4c3Cl)CC2)C1` [YD_0340] had a CC50 at 3 days in series [1] greater than 3000 nM. Also, the EC50 in series [2] and in series [3] was 100 to 1000 nM each time.

The compound `O=C(c1oc2c(C(F)(F)F)cc(C3CC3)cc2c1Cl)N1CCN(N2CCOC2=O)C(=O)C1` [YD_0219] showed a CC50 at 3 days in series [1] greater than 3000 nM. Moreover, the EC50 in series [2] and in series [3] was 0.1 to 100 nM throughout.

In series [1], `CC1CNCCN1C(=O)C1CCN(C(=O)c2oc3c(C(F)(F)F)cc(C4CC4)cc3c2Cl)CC1` (stereo not drawn) [YD_0322] had a CC50 at 3 days greater than 3000 nM. Besides, the EC50 in series [2] and in series [3] was 100 to 1000 nM each time.

The compound `CC(C)N1CCN(C(=O)c2nc3c(C(F)(F)F)cc(C4CC4)cn3c2Cl)NC1=O` [YA_0360] had a CC50 at 3 days in series [1] greater than 3000 nM. Besides, the EC50 in series [2] and in series [3] was 0.1 to 100 nM each time.

For the compound `O=C(c1oc2c(C(F)(F)F)cc(C3CC3)cc2c1Cl)N1CCC(C(=O)N2CC3CC3C2)CC1` (stereo not drawn) [YD_0324], the CC50 at 3 days in series [1] is greater than 3000 nM. The EC50 in series [2] and in series [3] was 0.1 to 100 nM throughout.

A word on the CC50: it is the concentration at which the toxic effect on the cells reaches its halfway point. By EC50 is commonly meant the concentration that produces a half-maximal response. A high value points to weaker potency.

The values above are taken from patent US10100027B2, “Benzofuran analogue as NS4B inhibitor” (priority 2014, dated 2018).
